Measurements published in patent publication US11130960B2, “Methods for conferring or enhancing herbicide resistance on plants and/or alga with protoporphyrinogen oxidase variants” (FARM HANNONG CO., LTD., priority 2014, dated 2021).

Tests used:
CyPPO2 = test: Growth inhibition of transformed PPO-deficient E. coli BT3(ΔPPO) on LB agar medium; type: cell-based, Oscillatoria nigro-viridis PCC 7112; conditions: 37° C., 16~20 hours
Text: (§1) To test herbicide resistance of CyPPO2, CyPPO4, CyPPO8 and CyPPO12 isolated in Example 1, PPO-deficient BT3 E. coli [hereinafter, referred to as BT3(ΔPPO)] was transformed with CyPPO2, CyPPO4, CyPPO8 or CyPPO12 gene, respectively and then cultured in the presence of herbicides to examine growth inhibition of the transformed E. coli. As a negative control, Arabidopsis thaliana-derived wild-type PPO (wild-type AtPPO1) was used, and wild-type AtPPO1 has sensitivity to PPO-based herbicides and its sequence information is available in GeneBank accession no. AX084732 (a nucleotide sequence of the gene is represented by SEQ ID NO: 10, and an amino acid sequence thereof is represented by SEQ ID NO: 9). As a positive control, Mutant AtPPO1 was used, in which amino acid replacements of Y426M (replacement of tyrosine by methionine at position 426) and S305L (replacement of serine by leucine at position 305) occur in the amino acid sequence of the wild-type AtPPO1 (an amino acid sequence is represented by SEQ ID NO: 11) (Li X, Volrath S L., N D B. G., Chilcott C E, Johnson M A, Ward E R, Law M D (2003) Development of protoporphyrinogen oxidase as an efficient selection marker for Agrobacterium tumefaciens-mediated transformation of maize. Plant physiology 133:736-747).
(§2) BT3(ΔPPO) strain was provided by Hokkaido University (Japan) and it is an E. coli strain which is deficient in hemG-type PPO and has Kanamycin resistance (Watanabe et al., (2001) Dual targeting of spinach protoporphyrinogen oxidase II to mitochondria and chloroplasts by alternative use of two in-frame […] codons. JBC 2047420481).
(§3) HVE-50 autoclave from Hirayama, HS2100A electronic scale from Hansung Instrument, CB-30V clean bench from Jeio Tech, JSI-200CL incubator from JSR, 1210 type UV-visible spectrophotometer from Thermo Fisher Scientific, MQ-200 photometer from Apogee, and Bio-Rad MyCycler as PCR machine were used. The autoclave was used under conditions of 121° C. and 15 minutes, and the incubator was used at 37° C. with lighting of 160˜200 μmol m^−2 s^−1 for a culture time of 14˜20 hours. LB medium (10 g/L of Bacto-Tryptone, 5 g/L of Yeast extract, 10 g/L of sodium chloride, 15 g/L of Bacto agar) and an antibiotic Chloramphenicol (Duchefa) were used.
(§4) To clone each of the CyPPO2, CyPPO4, CyPPO8 and CyPPO12 genes isolated and amplified in Example 1 into pACBB (its structure is shown in FIG. 2), 10 μl of a solution containing 4 μl of each PPO gene, […], 1 μl of 10× buffer A, 1 μl of 10× buffer B, 1 μl of ligase (RBC, 3 unit/μl) was prepared and allowed to react at 22° C. for 30 minutes. The reaction solution was added to 100 μl of DH5 alpha competent cells, and allowed to react on ice for 20 minutes and then left at 42° C. for 40 seconds. Thereafter, the cells were left on ice for 2 minutes, and then 1 ml of LB broth was added thereto, followed by incubation with shaking at 37° C. for 1 hour. The strains having each gene insert in the culture medium were harvested, and then cultured on LB agar medium containing chloramphenicol.
(§5) For seed culture of E. coli transformed with respective genes, single colonies thereof were cultured in 3 ml of LB broth containing chloramphenicol overnight, and each 100 μl thereof was sub-cultured in 3 ml of fresh LB broth until absorbance (OD600) reached 0.5˜1. They were diluted with LB broth to absorbance (OD600) of 0.5. 10-fold dilution of this diluted solution was performed with LB broth five times. Next, 10 μl of the diluted solution of the transformed E. coli culture was dropped on LB agar medium (petri dish) containing chloramphenicol and a variety of herbicide stocks at different concentrations (0˜400 μM). The LB agar plates were incubated at 37° C. At 16˜20 hours after culture, growth inhibition was examined with the naked eye. Further, growth inhibition of the strains cultured in a medium containing Tiafenacil was examined under light (lighting of 169 μmol m^−2s^−1) and dark conditions.

CyPPO8 = test: as above; type: cell-based, Halothece sp. PCC 7418; conditions: 37° C., 16~20 hours
Text: as §1, §2, §3, §4, §5

Row | Compound | concentration at which growth inhibition was hardly observed (CyPPO2) [µM] | concentration at which growth inhibition was hardly observed (CyPPO8) [µM]
1 | O=C(O)c1cc(Oc2ccc(C(F)(F)F)cc2Cl)ccc1[N+](=O)[O-] [Acifluorfen] | 400 | 400
2 | C#CCN(C)c1c(C#N)cnn1-c1nn2c(c1Cl)CCCC2 [Pyraclonil] | 400 | 400
3 | COC(=O)CSc1cc(/N=c2\sc(=O)n3n2CCCC3)c(F)cc1Cl [Fluthiacet-methyl] | 400 | 400
4 | CC(C)N(C)S(=O)(=O)NC(=O)c1cc(-n2c(=O)cc(C(F)(F)F)n(C)c2=O)c(F)cc1Cl [Saflufenacil] | 25 | 25
5 | CC(C)Oc1cc(-n2nc(C(C)(C)C)oc2=O)c(Cl)cc1Cl [Oxadiazon] | 400 | 400
6 | COC(=O)CCNC(=O)C(C)Sc1cc(-n2c(=O)cc(C(F)(F)F)n(C)c2=O)c(F)cc1Cl (centres unmarked) [Tiafenacil] | 25 | 25
7 | Cc1nn(-c2cc(NS(C)(=O)=O)c(Cl)cc2Cl)c(=O)n1C(F)F [Sulfentrazone] | 400 | 400
8 | CS(=O)(=O)NC(=O)c1cc(Oc2ccc(C(F)(F)F)cc2Cl)ccc1[N+](=O)[O-] [Fomesafen] | 400 | 400
9 | C#CCN1C(=O)COc2cc(F)c(N3C(=O)C4=C(CCCC4)C3=O)cc21 [Flumioxazin] | 25 | 25
10 | CC(C)=C1OC(=O)N(c2cc(OC3CCCC3)c(Cl)cc2F)C1=O [Pentoxazone] | 400 | 400
11 | CCOC(=O)COc1cc(-c2nn(C)c(OC(F)F)c2Cl)c(F)cc1Cl [Pyraflufen-ethyl] | 400 | 400
12 | CCOc1cc(Oc2ccc(C(F)(F)F)cc2Cl)ccc1[N+](=O)[O-] [Oxyfluorfen] | 400 | 400
13 | C=CCOC(=O)C(C)(C)OC(=O)c1cc(-n2c(=O)cc(C(F)(F)F)n(C)c2=O)ccc1Cl [Butafenacil] | 25 | 25
